# Assay results as given in patent US20210115036A1, “AZAINDOLES AND METHODS OF USE THEREOF” (GOLDFINCH BIO, INC., priority 2017, published 2021).
# Read-outs that look alike come from different tables or passages of the source.
# Molecular target: T1, human TRPC5 (Homo sapiens, UniProt Q9UL62)
# T1 construct: expressed in transfected cells; host or cells: HEK 293
# T1 sequence (Q9UL62 1-973): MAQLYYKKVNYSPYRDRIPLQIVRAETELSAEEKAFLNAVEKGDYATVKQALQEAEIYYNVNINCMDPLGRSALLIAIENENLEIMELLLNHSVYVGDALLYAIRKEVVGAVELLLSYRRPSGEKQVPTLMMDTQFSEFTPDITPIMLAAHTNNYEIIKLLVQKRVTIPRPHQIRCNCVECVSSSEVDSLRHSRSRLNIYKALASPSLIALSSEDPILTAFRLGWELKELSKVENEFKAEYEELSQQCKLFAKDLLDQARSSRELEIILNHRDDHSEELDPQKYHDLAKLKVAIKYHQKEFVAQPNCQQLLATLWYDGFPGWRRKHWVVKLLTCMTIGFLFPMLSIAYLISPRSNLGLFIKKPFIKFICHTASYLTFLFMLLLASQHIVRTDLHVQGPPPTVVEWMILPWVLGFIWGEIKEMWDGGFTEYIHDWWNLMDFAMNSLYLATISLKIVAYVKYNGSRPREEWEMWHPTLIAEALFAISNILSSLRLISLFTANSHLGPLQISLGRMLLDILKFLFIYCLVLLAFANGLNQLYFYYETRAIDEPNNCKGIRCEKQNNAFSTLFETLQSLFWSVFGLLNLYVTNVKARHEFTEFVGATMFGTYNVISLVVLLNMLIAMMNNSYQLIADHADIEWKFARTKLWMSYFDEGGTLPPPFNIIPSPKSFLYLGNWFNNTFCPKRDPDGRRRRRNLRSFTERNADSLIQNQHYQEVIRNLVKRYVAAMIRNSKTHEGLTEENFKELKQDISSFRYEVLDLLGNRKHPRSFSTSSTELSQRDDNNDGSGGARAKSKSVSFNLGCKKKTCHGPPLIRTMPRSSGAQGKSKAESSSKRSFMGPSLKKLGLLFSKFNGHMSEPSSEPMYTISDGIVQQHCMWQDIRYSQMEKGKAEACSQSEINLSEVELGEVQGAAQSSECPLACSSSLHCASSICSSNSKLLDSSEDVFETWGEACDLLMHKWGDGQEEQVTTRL
# Experiment: Automated patch clamp assay (QPatch), current block after stimulation with rosiglitazone
# Type: cell-based
# Details: HEK293 cells overexpressing TRPC5, whole cell automated patch
# Protocol: HEK 293 cells expressing human TRPC5 were harvested, re-suspended in serum free medium, and added to the automated platform and used within 2-3 hours. Internal and external physiological solutions were freshly prepared prior to the assay. The external solution contained: 145 mM NaCl, 4 mM KCl, 2 mM CaCl2), 1 mM MgCl2, 10 mM HEPES, 10 mM glucose, pH 7.4 with NaOH and 300 mOsm/L. The internal solution contained 120 mM L-aspartic acid, 120 mM CsOH.H2O, 20 mM CsCl, 2 mM MgCl2, 8.8 mM CaCl2), 10 mM EGTA, 10 mM HEPES, 10 mM Glucose, 0.1 mM GTP and 2 mM Na2ATP; pH 7.2 with CsOH and 290 mOsm/L. The free internal Ca2+ concentration was buffered to 1 μM.
# The automated electrophysiological platform QPatch 16 from Sophion (Denmark) was used to carry out the compounds profiling. The series resistance and quality of seals were continuously monitored during the experiments. Data was analyzed using Sophion QPatch assay software 5.6 (Odense). IC50 values were calculated using a least squares regression algorithm (Hill equation).
# To monitor the ion currents, a voltage ramp from −100 mV to +100 mV, over 300 ms, was applied every 10 seconds, from a holding potential of −60 mV.
# After recording for a minimum of 60 seconds control period, Rosiglitazone (30 uM), was applied to activate the channel.
# [1] = 80 mV, 1-substituted 7-azaindoles, read-out: TRPC5 IC50 80 mV
# [2] = 100 mV, 7-substituted 7-azaindoles, read-out: TRPC5 IC50 100 mV
# [3] = 100 mV, 1-substituted 7-azaindoles, read-out: TRPC5 IC50 100 mV
smiles,measurement,setting,value
CC(C)(C)c1cc2cccnc2n1Cc1ccccc1 [drawing 63],IC50,[1],3.51 µM
CC(C)(C)c1cc2cccn(C[C@H]3CC[C@H](C)CC3)c-2n1 [drawing 138],IC50,[2],24.5 µM
CC(C)(C)c1cc2cccnc2n1C[C@H]1CC[C@H](C)CC1 [drawing 112],IC50,[1],> 30 µM
CC(C)(C)c1cc2cccnc2n1CCCc1ccccc1,IC50,[1],> 30 µM
CC(C)(C)c1cc2c(OCCCO)ccnc2n1Cc1ccccc1,IC50,[1],> 30 µM
same,IC50,[3],> 30 µM
OCc1cc2cccnc2n1Cc1ccccc1,IC50,[1],> 30 µM
same,IC50,[3],> 30 µM
COC(C)(C)Cc1cc2cccnc2n1Cc1ccccc1,IC50,[1],13.8 µM
same,IC50,[3],8.52 µM
CN(C)Cc1cc2cccnc2n1Cc1ccccc1,IC50,[1],18.3 µM
same,IC50,[3],21.6 µM
Cn1cc(Cn2cccc3cc(C(C)(C)C)nc2-3)c(C(F)(F)F)n1,IC50,[2],10.4 µM
Cn1cc(Cn2cccc3cc(C(C)(C)C)nc2-3)cn1,IC50,[2],9.79 µM
Cc1noc(C)c1Cn1cccc2cc(C(C)(C)C)nc1-2,IC50,[2],15.6 µM
Cn1nc(C(F)(F)F)cc1Cn1c(C(C)(C)C)cc2cccnc21,IC50,[1],19.6 µM
same,IC50,[3],19.1 µM
CC(C)Cc1cc2cccnc2n1Cc1ccccc1 [drawing 73],IC50,[3],> 30 µM
CC(C)(C)c1cc2cccnc2n1CC1CCN(Cc2ccccc2)CC1,IC50,[1],> 30 µM
CCN(CC)Cc1cc2cccnc2n1Cc1ccccc1,IC50,[1],6.24 µM
same,IC50,[3],4.19 µM
COC(C)(C)c1cc2cccnc2n1Cc1ccccc1,IC50,[1],> 30 µM
same,IC50,[3],> 30 µM
Cc1noc(C)c1Cn1c(C(C)(C)C)cc2cccnc21,IC50,[1],> 30 µM
same,IC50,[3],> 30 µM
CC(C)(C)c1cc2cccnc2n1Cc1ccc(Cl)cc1,IC50,[1],> 30 µM
CC(C)(C)c1cc2cccnc2n1CC1CCN(S(C)(=O)=O)CC1,IC50,[1],> 30 µM
CC(C)(C)c1cc2cccnc2n1CC1CCNCC1,IC50,[1],> 30 µM
CC(C)(C)c1cc2cccn(Cc3ccncc3)c-2n1,IC50,[2],> 30 µM
Cc1cc2cccnc2n1Cc1ccccc1,IC50,[1],> 30 µM
CC(C)(C)c1cc2cccnc2n1Cc1cccnc1,IC50,[1],> 30 µM
same,IC50,[3],> 30 µM
c1ccc(Cn2c(CN3CCCC3)cc3cccnc32)cc1,IC50,[1],17 µM
same,IC50,[3],16.6 µM
Clc1ccc(Cn2c(CN3CCCC3)cc3cccnc32)cc1,IC50,[1],23.6 µM
same,IC50,[3],25.2 µM
CC(C)(C)Cc1cc2cccnc2n1Cc1ccccc1,IC50,[1],> 30 µM
same,IC50,[3],> 30 µM
CC(C)(O)c1cc2cccnc2n1Cc1ccccc1 [drawing 81],IC50,[3],> 30 µM
COc1cccc(Cn2cccc3cc(C(C)(C)C)nc2-3)c1 [drawing 130],IC50,[2],10.2 µM
CC(C)Cc1cc2cccnc2n1Cc1ccccc1 [drawing 72],IC50,[1],> 30 µM
CC(C)(C)c1cc2cccnc2n1Cc1ccncc1,IC50,[1],> 30 µM
same,IC50,[3],> 30 µM
CC(C)(C)c1cc2cccn(C[C@H]3CC[C@H](C)CC3)c-2n1 [drawing 137],IC50,[2],22.2 µM
Cc1ccnc2c1cc(C(C)(C)C)n2Cc1ccccc1,IC50,[1],> 30 µM
Cn1cc(Cn2c(C(C)(C)C)cc3cccnc32)cn1,IC50,[1],> 30 µM
same,IC50,[3],> 30 µM
CC(C)(C)c1cc2cccnc2n1Cc1ccc(Cl)cn1,IC50,[1],> 30 µM
Cn1nc(C(F)(F)F)cc1Cn1cccc2cc(C(C)(C)C)nc1-2,IC50,[2],12.2 µM
COc1cc(Cl)ccc1Cn1c(C(C)(C)C)cc2cccnc21,IC50,[1],> 30 µM
COc1cccc(Cn2c(C(C)(C)C)cc3cccnc32)c1,IC50,[1],> 30 µM
same,IC50,[3],> 30 µM
CN1CCC(Cn2c(C(C)(C)C)cc3cccnc32)CC1,IC50,[1],> 30 µM
OCCc1cc2cccnc2n1Cc1ccccc1,IC50,[1],> 30 µM
same,IC50,[3],> 30 µM
CC(C)(C)c1cc2ccc(OCCO)nc2n1Cc1ccccc1,IC50,[1],> 30 µM
CC(C)(C)c1cc2cccnc2n1Cc1ccc(Cl)cc1C#N,IC50,[1],> 30 µM
C[C@H](c1ccccc1)n1c(C(C)(C)C)cc2cccnc21,IC50,[1],> 30 µM
same,IC50,[3],> 30 µM
CC(C)(C)c1cc2cccn(Cc3cccnc3)c-2n1 [drawing 133],IC50,[2],14 µM
CN(C)CCc1cc2cccnc2n1Cc1ccccc1,IC50,[1],> 30 µM
same,IC50,[3],> 30 µM
CC(C)(C)c1cc2cccnc2n1CCOc1ccccc1,IC50,[1],> 30 µM
Cc1ccc2cc(C(C)(C)C)n(C(=O)c3ccccc3)c2n1,IC50,[1],> 30 µM
CC(C)(C)c1cc2cccn(Cc3ccc(Cl)cc3)c-2n1 [drawing 127],IC50,[2],8.1 µM
CC(C)(C)c1cc2cccnc2n1CCc1ccccc1,IC50,[1],> 30 µM
COc1ccc(Cn2c(C(C)(C)C)cc3cccnc32)cc1,IC50,[1],> 30 µM
same,IC50,[3],> 30 µM
CC(C)(C)c1cc2cccn(Cc3cncc(F)c3)c-2n1,IC50,[2],7.64 µM
COCCc1cc2cccnc2n1Cc1ccccc1,IC50,[1],> 30 µM
same,IC50,[3],> 30 µM
Cc1nn(C)cc1Cn1cccc2cc(C(C)(C)C)nc1-2,IC50,[2],17.6 µM
Cc1ccc2cc(C(C)(C)C)n(Cc3ccccc3)c2n1,IC50,[1],> 30 µM
CC(c1ccccc1)n1c(C(C)(C)C)cc2cccnc21 (stereo not drawn),IC50,[1],> 30 µM
Cn1cc(Cn2c(C(C)(C)C)cc3cccnc32)c(C(F)(F)F)n1,IC50,[1],> 30 µM
same,IC50,[3],> 30 µM
CC(C)(C)c1cc2cccnc2n1CC1CCOCC1,IC50,[1],> 30 µM
CC(C)(C)c1cc2cccn(Cc3ccc(Cl)cc3)c-2n1 [drawing 125],IC50,[2],6.02 µM
CC(C)(C)c1cc2cccnc2n1CC1CCCCC1,IC50,[1],> 30 µM
CC(=O)N1CCC(Cn2c(C(C)(C)C)cc3cccnc32)CC1,IC50,[1],> 30 µM
Cc1ncc(Cn2c(C(C)(C)C)cc3cccnc32)cn1,IC50,[1],> 30 µM
CC(C)(C)c1cc2cccnc2n1Cc1cncc(F)c1,IC50,[1],> 30 µM
same,IC50,[3],> 30 µM
CC(C)(O)c1cc2cccnc2n1Cc1ccccc1 [drawing 80],IC50,[1],> 30 µM
COc1cccc(Cn2cccc3cc(C(C)(C)C)nc2-3)c1 [drawing 128],IC50,[2],8.57 µM
C[C@@H](c1ccccc1)n1c(C(C)(C)C)cc2cccnc21,IC50,[1],> 30 µM
same,IC50,[3],> 30 µM
COc1ccc(Cn2cccc3cc(C(C)(C)C)nc2-3)cc1,IC50,[2],5.47 µM
CC(C)(C)c1cc2cccn(Cc3cccnc3)c-2n1 [drawing 134],IC50,[2],14.4 µM
CC(C)(C)c1cc2ccc(OCCCO)nc2n1Cc1ccccc1,IC50,[1],> 30 µM
CC(C)(C)c1cc2cccnc2n1Cc1ccccc1 [drawing 65],IC50,[1],7.07 µM
CC(C)(O)Cc1cc2cccnc2n1Cc1ccccc1,IC50,[1],> 30 µM
same,IC50,[3],> 30 µM
CC(C)(C)c1cc2cccnc2n1C[C@H]1CC[C@H](C)CC1 [drawing 113],IC50,[3],> 30 µM
Cc1cc2cccnc2n1Cc1ccc(Cl)cc1,IC50,[1],> 30 µM
CC(C)(C)c1cc2cc(OCCCO)cnc2n1Cc1ccccc1,IC50,[1],> 30 µM
same,IC50,[3],> 30 µM
Cc1nn(C)cc1Cn1c(C(C)(C)C)cc2cccnc21,IC50,[1],> 30 µM
same,IC50,[3],> 30 µM
